From PubChem BioAssay AID328 (DTP/NCI, 2004) come the findings set out here.

Molecules are shown by their SMILES. Several values for one entry are separate records, joined by “and”; a condition that tells them apart may be missing. Equal entries are not always repeated. Toxic doses and inconclusive results are not listed.

The subject of the experiment is BDF1 mice, P388 leukemia ip, median survival T/C. Briefly: NCI In Vivo Anticancer Drug Screen. Data for tumor model P388 Leukemia (intraperitoneal) in B6D2F1 (BDF1) mice. The settings on record: endpoint: median survival time, higher = longer survival. In short, it runs like this:
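Antitumour effect was judged in vivo: survival in drug-treated mice, normalised to that of vehicle-dosed controls, gives the reported T/C.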

Setting [1] is: dose: 50.0 mg/kg/injection, schedule: Q01DX009 (ip), vehicle: saline + alcohol.
Setting [2] is: dose: 100.0 mg/kg/injection, schedule: Q04DX003 (ip), vehicle: saline.
The mark [3] stands for this setting: dose: 200.0 mg/kg/injection, schedule: Q04DX003 (ip), vehicle: saline.
The mark [4] stands for this setting: dose: 400.0 mg/kg/injection, schedule: Q04DX003 (ip), vehicle: saline.
Where [5] appears, read: dose: 50.0 mg/kg/injection, schedule: Q01DX010 (ip), vehicle: saline.
The mark [6] stands for this setting: dose: 100.0 mg/kg/injection, schedule: Q01DX010 (ip), vehicle: saline.
Where [7] appears, read: dose: 100.0 mg/kg/injection, schedule: Q01DX009 (ip), vehicle: saline.
Where [8] appears, read: dose: 200.0 mg/kg/injection, schedule: Q01DX009 (ip), vehicle: saline.
[9] abbreviates: dose: 50.0 mg/kg/injection, schedule: Q01DX009 (ip), vehicle: saline with Tween-80.
The mark [10] stands for this setting: dose: 100.0 mg/kg/injection, schedule: Q01DX009 (ip), vehicle: saline with Tween-80.
Setting [11] is: dose: 200.0 mg/kg/injection, schedule: Q01DX009 (ip), vehicle: saline with Tween-80.
The mark [12] stands for this setting: dose: 100.0 mg/kg/injection, schedule: Q04DX003 (ip), vehicle: saline with Tween-80.
Where [13] appears, read: dose: 200.0 mg/kg/injection, schedule: Q04DX003 (ip), vehicle: saline with Tween-80.
Where [14] appears, read: dose: 400.0 mg/kg/injection, schedule: Q04DX003 (ip), vehicle: saline with Tween-80.
[15] abbreviates: dose: 25.0 mg/kg/injection, schedule: Q01DX009 (ip), vehicle: saline with Tween-80.

With `CC(=O)c1ccccc1-n1c(C)ccc1C`, the T/C runs as follows: (dose: 25.0 mg/kg/injection, schedule: Q01DX009 (ip), vehicle: saline + alcohol) 114 % of control; under setting [1], 122 % of control; (dose: 50.0 mg/kg/injection, schedule: Q04DX003 (ip), vehicle: saline) 96 % of control; (dose: 100.0 mg/kg/injection, schedule: Q01DX009 (ip), vehicle: saline + alcohol) 116 % of control; under setting [2], 119 % of control; (dose: 200.0 mg/kg/injection, schedule: Q01DX009 (ip), vehicle: saline + alcohol) 99 % of control. Moreover, the T/C is 92 % of control under setting [3] and 97 % of control under setting [4].

Consider `Cc1ccccc1N=C(N)Nc1ccccc1C`, for which the T/C by setting is: (dose: 6.25 mg/kg/injection, schedule: Q04DX003 (ip), vehicle: saline with Tween-80) 105 % of control; (dose: 12.5 mg/kg/injection, schedule: Q04DX003 (ip), vehicle: saline with Tween-80) 94 % of control; (dose: 25.0 mg/kg/injection, schedule: Q04DX003 (ip), vehicle: saline with Tween-80) 100 % of control.

Consider `O=C1CC(c2ccc(O)cc2)C2(O1)C(=O)OC(C(O)CO)C2O` (configuration not stated), for which the T/C is 100 % of control under setting [5]; 100 % of control under setting [6]; 105 % of control (dose: 200.0 mg/kg/injection, schedule: Q01DX010 (ip), vehicle: saline); 105 % of control (dose: 400.0 mg/kg/injection, schedule: Q01DX010 (ip), vehicle: saline).

As to `Cn1c(N)nc2nc[nH]c2c1=S`, the T/C is 91 % of control (dose: 10.0 mg/kg/injection, schedule: Q01DX010 (ip), vehicle: saline); 91 % of control and 95 % of control (dose: 20.0 mg/kg/injection, schedule: Q01DX010 (ip), vehicle: saline); 91 % of control and 100 % of control (dose: 40.0 mg/kg/injection, schedule: Q01DX010 (ip), vehicle: saline); 91 % of control and 95 % of control (dose: 80.0 mg/kg/injection, schedule: Q01DX010 (ip), vehicle: saline).

`O=[N+]([O-])c1ccc(N/N=C/CC(O)CO)c([N+](=O)[O-])c1` (configuration not stated): the T/C runs as follows: under setting [7], 100 % of control; under setting [8], 120 % of control.

Take `CCc1nn2c(=O)nc(Oc3ccccc3)nc2s1`: the T/C was 101 % of control under setting [9], 106 % of control under setting [10] and 98 % of control under setting [11].

With `CCN(CC)CC(COC)Oc1cc(C)ccc1C(C)C` (configuration not stated), the T/C runs as follows: under setting [9], 100 % of control; under setting [10], 91 % of control.

On to `O=S(=O)(O)c1cccc2cccc(Cl)c12`, for which the T/C runs as follows: under setting [2], 100 % of control; under setting [3], 95 % of control; under setting [4], 100 % of control.

As to `Cn1c2c(c3ccccc3c1=O)C(=O)c1ccccc1-2`, the T/C by setting is: under setting [9], 101 % of control; under setting [11], 90 % of control.

For the compound `CCCCCCCCOc1cc(OCCCCCCCC)c2c(ccc3ccccc32)c1`, the T/C is 97 % of control under setting [12], 88 % of control under setting [13] and 94 % of control under setting [14].

Consider `CCCCC(CC)CC1CCCCC1O` (configuration not stated), for which the T/C (dose: 100.0 mg/kg/injection, schedule: Q01DX009 (ip), vehicle: Klucel (hydroxypropylcellulose) (HPC)) is 87 % of control; the T/C (dose: 100.0 mg/kg/injection, schedule: Q04DX003 (ip), vehicle: Klucel (hydroxypropylcellulose) (HPC)) is 122 % of control; the T/C (dose: 200.0 mg/kg/injection, schedule: Q01DX009 (ip), vehicle: Klucel (hydroxypropylcellulose) (HPC)) was 91 % of control; the T/C (dose: 200.0 mg/kg/injection, schedule: Q04DX003 (ip), vehicle: Klucel (hydroxypropylcellulose) (HPC)) is 109 % of control; the T/C (dose: 400.0 mg/kg/injection, schedule: Q04DX003 (ip), vehicle: Klucel (hydroxypropylcellulose) (HPC)) is 95 % of control.

Take `CCOC(=O)c1cn(COC)c2nc(SC)nc(NC(C)=O)c2c1=O`: the T/C is, setting by setting: (dose: 100.0 mg/kg/injection, schedule: Q01DX001 (ip), vehicle: saline with Tween-80) 105 % of control; (dose: 200.0 mg/kg/injection, schedule: Q01DX001 (ip), vehicle: saline with Tween-80) 90 % of control; (dose: 400.0 mg/kg/injection, schedule: Q01DX001 (ip), vehicle: saline with Tween-80) 90 % of control.

Regarding `NC(CSC(c1ccccc1)(c1ccccc1)c1ccccc1)C(=O)NCC(=O)O` (configuration not stated), the T/C was 111 % of control (dose: 177.0 mg/kg/injection, schedule: Q01DX009 (ip), vehicle: saline with Tween-80) and 107 % of control (dose: 400.0 mg/kg/injection, schedule: Q01DX009 (ip), vehicle: saline with Tween-80).

With `CS(=O)(=O)OCCN(CCOS(C)(=O)=O)c1ccc(/C=N/Nc2ncnc3nc[nH]c23)cc1`, the T/C is, setting by setting: (dose: 3.13 mg/kg/injection, schedule: Q04DX003 (ip), vehicle: saline with Tween-80) 120 % of control; (dose: 66.0 mg/kg/injection, schedule: Q04DX003 (ip), vehicle: saline with Tween-80) 156 % of control; under setting [12], 168 % of control and 182 % of control; (dose: 150.0 mg/kg/injection, schedule: Q04DX003 (ip), vehicle: saline with Tween-80) 165 % of control; under setting [13], 159 % of control.

`N#CC(Nc1ccccc1C(N)=O)c1ccccc1` (configuration not stated): the T/C under setting [2] is 109 % of control, the T/C under setting [3] was 104 % of control and the T/C under setting [4] was 95 % of control.

For `CCCCCCCCCCCCCCCCN(C)CCO`, under setting [1], the T/C is 97 % of control.

Consider `NC(=NCCCC(NC(=O)c1ccccc1)C(=O)O)NC(=O)c1ccccc1` (configuration not stated), for which the T/C runs as follows: under setting [9], 103 % of control; under setting [10], 120 % of control; under setting [11], 118 % of control.

With `c1ccc(CCCSc2ccccc2)cc1`, the T/C was 118 % of control under setting [12], 113 % of control under setting [13] and 109 % of control under setting [14].

As for `NC(Cc1ccc(Cl)cc1)C(=O)O` (configuration not stated), the T/C runs as follows: (dose: 200.0 mg/kg/injection, schedule: Q01DX010 (im), vehicle: other) 90 % of control; (dose: 400.0 mg/kg/injection, schedule: Q01DX010 (im), vehicle: other) 90 % of control; (dose: 600.0 mg/kg/injection, schedule: Q01DX010 (im), vehicle: other) 90 % of control.

As to `C1CCC(=[N+]2CCCC2)CC1`, the T/C was 100 % of control (dose: 50.0 mg/kg/injection, schedule: Q01DX009 (ip), vehicle: saline); 100 % of control under setting [7]; 109 % of control under setting [2]; 112 % of control under setting [8]; 100 % of control under setting [3].

As to `CCCCCCCCCCCCCCC(F)C(=O)OCC1OC(CO)(OC2OC(CO)C(O)C(O)C2O)C(O)C1O` (configuration not stated), the T/C reads like this: under setting [15], 116 % of control; under setting [9], 108 % of control; (dose: 50.0 mg/kg/injection, schedule: Q04DX003 (ip), vehicle: saline with Tween-80) 108 % of control; under setting [12], 91 % of control.

As for `Oc1cccc(O)c1`, the T/C under setting [5] was 95 % of control and the T/C under setting [6] is 91 % of control.

As for `O=C1Cc2ccccc21`, the T/C is 96 % of control under setting [10]; 100 % of control and 110 % of control under setting [12]; 100 % of control (dose: 177.0 mg/kg/injection, schedule: Q04DX003 (ip), vehicle: saline with Tween-80); 107 % of control under setting [11]; 110 % of control under setting [13]; 104 % of control and 109 % of control (dose: 266.0 mg/kg/injection, schedule: Q04DX003 (ip), vehicle: saline with Tween-80). Besides, the T/C (dose: 600.0 mg/kg/injection, schedule: Q04DX003 (ip), vehicle: saline with Tween-80) is 104 % of control and 122 % of control.

As for `CNC1C(OC2C(OC3C(O)C(O)C(O)C(O)C3O)OC(C)C2(O)CO)OC(CO)C(O)C1O` (configuration not stated) (tested in a mixture with another compound), the T/C reads like this: under setting [7], 100 % of control; under setting [8], 100 % of control; (dose: 400.0 mg/kg/injection, schedule: Q01DX009 (ip), vehicle: saline) 100 % of control.

For the compound `Cc1cc(-c2ccc(Br)cc2)[n+](C)n1C`, the T/C is, setting by setting: (dose: 12.5 mg/kg/injection, schedule: Q01DX009 (ip), vehicle: saline with Tween-80) 102 % of control; under setting [15], 107 % of control; under setting [9], 111 % of control.

With `Cc1cc(N(CCCl)CCCl)ccc1C=Nc1cccc(Cl)c1`, the T/C is, setting by setting: under setting [9], 103 % of control; under setting [10], 119 % of control; under setting [12], 118 % of control; under setting [11], 96 % of control; under setting [13], 118 % of control.

Take `CC1(C)OCC(=NNC(N)=O)CO1`: the T/C under setting [2] is 98 % of control.
